What was measured:
IRAK4 = target: T1, IRAK4 (Homo sapiens, UniProt Q9NWZ3); assay: Western blot degradation of IRAK4 (hPBMC); type: cell-based; conditions: Table D1
T1 construct: evaluate the effects of the compounds of the present disclosure on the expression of target proteins in cells; endogenous in cells; host or cells: hPBMC
T1 sequence (Q9NWZ3 1-460): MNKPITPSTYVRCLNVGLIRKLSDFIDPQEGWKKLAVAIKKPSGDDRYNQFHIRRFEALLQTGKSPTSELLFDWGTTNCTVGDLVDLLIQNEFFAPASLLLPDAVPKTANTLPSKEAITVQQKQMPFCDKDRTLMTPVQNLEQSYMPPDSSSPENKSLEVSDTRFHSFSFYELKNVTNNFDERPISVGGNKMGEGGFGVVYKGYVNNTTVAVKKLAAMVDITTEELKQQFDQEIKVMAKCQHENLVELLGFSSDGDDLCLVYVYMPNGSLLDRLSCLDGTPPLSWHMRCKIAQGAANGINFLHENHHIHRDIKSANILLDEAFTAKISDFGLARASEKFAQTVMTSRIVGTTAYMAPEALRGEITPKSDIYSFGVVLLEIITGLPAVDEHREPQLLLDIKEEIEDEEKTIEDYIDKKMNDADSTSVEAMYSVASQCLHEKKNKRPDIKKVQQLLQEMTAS
Protocol: Conventional Western blot assay was performed to evaluate the effects of the compounds of the present disclosure on the expression of target proteins in cells.
(1) Cell Seeding and Protein Harvesting: The selected cells were processed according to the cell seeding procedure and protein harvesting procedure in Table III-2. Table III-2 Cell Seeding and Protein Harvesting Procedures
(2) To the collected supernatant, 5X SDS sample loading buffer was added, followed by denaturation at 95°C for 5 minutes. The denatured samples were then separated by SDS-PAGE electrophoresis on a polyacrylamide gel. Proteins were transferred to a nitrocellulose membrane (0.45 µm NC membrane), blocked with blocking buffer at room temperature for 1 hour, and subjected to antibody incubation and development procedures according to the antibody manufacturer's instructions (Cell Signaling Technology).
Half-Maximal Degradation Concentration value (the drug concentration required for degrading proteins by 50%, abbreviated as DC50) reads method: comparing the grayscale values of Western blot bands from drug-treated samples with those from blank DMSO-treated controls, and identifying the drug concentration range at which the grayscale value is half that of the DMSO-treated control bands.
DC50 values can be calculated using ImageJ software to measure grayscale values of Western blot bands from drug-treated samples. The concentration-response curve is fitted to estimate the drug concentration corresponding to half the grayscale value.
Target protein remaining (%) refers to the percentage of target protein remaining in hPBMC cells after treatment with protein degrader compounds.
Calculation method for target protein remaining (%): Use ImageJ software to measure grayscale values of Western blot bands from drug (protein degrader)-treated samples. The grayscale value of drug-treated bands is divided by that of internal control protein bands, and the resulting quotient is normalized to obtain the relative percentage of remaining target protein after protein degrader treatment.
Target protein degradation rate (%) = 100% - target protein remaining (%).

MM.1S = assay: CCK-8 proliferation, MM.1S; type: cell-based; conditions: Homo sapiens, MM1.S; CCK-8; 72 hours; read-out: Inhibitory activity (IC50) on tumor cell proliferation, MM1S
Protocol: (§1) The tumor cells used herein were cultured in a cell culture medium listed in table A1 at 37°C in an incubator with 5% CO2. Prior to experimentation, all cell lines used were correctly identified by STR profiling, and tested negative for mycoplasma contamination using a mycoplasma detection kit through routine screenings. Table A1. Tumor cells and cell culture medium used in the present disclosure
(§2) IC50 values of the compounds of the present disclosure (including the compounds in Table 1, and compounds of examples) were measured using the Meilun Cell Counting Kit-8 kit from Dalian Meilun Biotech Co., Ltd. Assay details are as follows: tumor cells were seeded in a 96-well plate at a density listed in Table A2. After 24h, 100 µL of the inoculated cells were treated with 0.5µL of the compounds of the present disclosure (including the compounds in Tables 1 and 2, and compounds of examples) at 10 different successively decreasing concentrations (starting at the highest concentration of 10µM; 5-fold serial dilutions). After the cells were treated with the compounds of the present disclosure for a period of time, the cell viability detection reagent was added to the culture medium for cell viability assessment according to the instructions provided with the CCK-8 kit. […] The growth inhibition of the compounds of the present disclosure on cells was plotted by Prism Graphpad software, and the IC50 values of the compounds of the present disclosure were calculated therefrom. […] Seeding protocol and treatment time for tumor cells

CCRF-CEM = assay: CCK-8 proliferation, CCRF-CEM; type: cell-based, Human; conditions: Homo sapiens, CCRF-CEM; CCK-8; 96 hours; read-out: Inhibitory activity (IC50) on tumor cell proliferation, CCRF-CEM
Protocol: as §1, §2

[1] = target: T2, human Cereblon WT GST-tagged protein (Homo sapiens, UniProt Q96SW2); assay: CRBN binding, HTRF (CEREBLON BINDING kit); conditions: Table II-2, CRBN binding screening, HTRF
T2 construct: purchased CISBIO 64BDCRBNPEH
T2 sequence (Q96SW2 whole entry): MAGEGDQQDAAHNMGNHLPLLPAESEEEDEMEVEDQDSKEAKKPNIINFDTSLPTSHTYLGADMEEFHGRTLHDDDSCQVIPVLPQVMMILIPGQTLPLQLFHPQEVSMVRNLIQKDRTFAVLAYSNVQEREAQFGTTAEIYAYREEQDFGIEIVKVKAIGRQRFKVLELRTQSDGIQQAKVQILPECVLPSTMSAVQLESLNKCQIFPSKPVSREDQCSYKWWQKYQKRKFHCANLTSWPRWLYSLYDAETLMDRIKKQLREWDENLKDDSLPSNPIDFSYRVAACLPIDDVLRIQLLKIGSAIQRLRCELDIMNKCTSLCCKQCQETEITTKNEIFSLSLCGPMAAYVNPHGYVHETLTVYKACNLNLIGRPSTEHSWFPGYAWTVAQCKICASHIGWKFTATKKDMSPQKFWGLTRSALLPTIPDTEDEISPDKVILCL
Procedure, shortened: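 Competitive HTRF: GST-tagged human WT Cereblon mixed with compound, Thalidomide-Re tracer and GST Eu antibody, incubated 3 h at room temperature. Signals read at 620 and 665 nm.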

H1975 = assay: CCK-8 proliferation, NCI-H1975 (H1975); type: cell-based, Human; conditions: Homo sapiens, NCI-H1975; CCK-8; 96 hours; read-out: Inhibitory activity (IC50) on tumor cell proliferation, H1975
Procedure, shortened: (§3)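 Tumor cells were cultured at 37°C with 5% CO2, seeded, and after 24h treated with compounds at 10 concentrations starting at 10µM (5-fold serial dilutions).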

MCF7 = assay: CCK-8 proliferation, MCF7 (MCF-7); type: cell-based; conditions: Homo sapiens, MCF7; CCK-8; read-out: Inhibitory activity (IC50) on tumor cell proliferation, MCF7
Procedure, shortened: as §3

SMILES: O=C1CCC(c2ccc(CN3CCC(n4cc(NC(=O)c5coc(-c6ccnc(NCC7CC7)c6)n5)c(C(F)F)n4)CC3)cc2F)C(=O)N1 (stereo not drawn) [GT-04176, 2-(2-((cyclopropylmethyl)amino)pyridin-4-yl)-N-(3-(difluoromethyl)-1-(1-(4-(2,6-dioxopiperidin-3-yl)-3-fluorobenzyl)piperidin-4-yl)-1H-pyrazol-4-yl)oxazole-4-carboxamide]
- Degradation of substrate protein IRAK4 (substrate protein remaining %) (IRAK4): A (A is defined as 0% ≤ substrate protein remaining % ≤ 80%)

SMILES: O=C1CCN(c2cccc(CN3CCC(n4cc(NC(=O)c5cnn6ccc(N7CCOCC7)nc56)c(C(F)F)n4)CC3)c2)C(=O)N1 [GT-04177, N-(3-(difluoromethyl)-1-(1-(3-(2,4-dioxotetrahydropyrimidin-1(2H)-yl)benzyl)piperidin-4-yl)-1H-pyrazol-4-yl)-5-morpholinopyrazolo[1,5-a]pyrimidine-3-carboxamide]
- Degradation of substrate protein IRAK4 (substrate protein remaining %) (IRAK4): A (A is defined as 0% ≤ substrate protein remaining % ≤ 80%)

SMILES: COc1cc2nn(C3CCN(Cc4cccc(NC5CCC(=O)NC5=O)c4)CC3)cc2cc1NC(=O)c1cccc(C(F)(F)F)c1 (stereo not drawn) [GT-04749, N-(2-(1-(3-((2,6-dioxopiperidin-3-yl)amino)benzyl)piperidin-4-yl)-6-methoxy-2H-indazol-5-yl)-3-(trifluoromethyl)benzamide]
- Degradation of substrate protein IRAK4 (substrate protein remaining %) (IRAK4): A (A is defined as 0% ≤ substrate protein remaining % ≤ 80%)

SMILES: COc1cc2nn(C3CCN(Cc4cccc(N5CCC(=O)NC5=O)c4)CC3)cc2cc1NC(=O)c1cccc(C(F)(F)F)c1 [GT-04750, N-(2-(1-(3-(2,4-dioxotetrahydropyrimidin-1(2H)-yl)benzyl)piperidin-4-yl)-6-methoxy-2H-indazol-5-yl)-3-(trifluoromethyl)benzamide]
- Degradation of substrate protein IRAK4 (substrate protein remaining %) (IRAK4): A (A is defined as 0% ≤ substrate protein remaining % ≤ 80%)

SMILES: COc1cc2nn(C3CCN(Cc4ccc(N5CCC(=O)NC5=O)cc4)CC3)cc2cc1NC(=O)c1cccc(C(F)(F)F)c1 [GT-04752, N-(2-(1-(4-(2,4-dioxotetrahydropyrimidin-1(2H)-yl)benzyl)piperidin-4-yl)-6-methoxy-2H-indazol-5-yl)-3-(trifluoromethyl)benzamide]
- Degradation of substrate protein IRAK4 (substrate protein remaining %) (IRAK4): A (A is defined as 0% ≤ substrate protein remaining % ≤ 80%)

SMILES: COc1cc2nn(C3CCN(Cc4ccc(N5CCC(=O)NC5=O)cc4F)CC3)cc2cc1NC(=O)c1cccc(C(F)(F)F)c1 [GT-04753, N-(2-(1-(4-(2,4-dioxotetrahydropyrimidin-1(2H)-yl)-2-fluorobenzyl)piperidin-4-yl)-6-methoxy-2H-indazol-5-yl)-3-(trifluoromethyl)benzamide]
- Degradation of substrate protein IRAK4 (substrate protein remaining %) (IRAK4): A (A is defined as 0% ≤ substrate protein remaining % ≤ 80%)

SMILES: COc1cc2nn(C3CCN(Cc4ccc(C5CCC(=O)NC5=O)cc4)CC3)cc2cc1NC(=O)c1cccc(C(F)(F)F)n1 (stereo not drawn) [GT-04761, N-(2-(1-(4-(2,6-dioxopiperidin-3-yl)benzyl)piperidin-4-yl)-6-methoxy-2H-indazol-5-yl)-6-(trifluoromethyl)picolinamide]
- Degradation of substrate protein IRAK4 (substrate protein remaining %) (IRAK4): A (A is defined as 0% ≤ substrate protein remaining % ≤ 80%)

SMILES: COc1cc2nn(C3CCN(Cc4cccc(NC5CCC(=O)NC5=O)c4)CC3)cc2cc1NC(=O)c1cccc(C(F)(F)F)n1 (stereo not drawn) [GT-04763, N-(2-(1-(3-((2,6-dioxopiperidin-3-yl)amino)benzyl)piperidin-4-yl)-6-methoxy-2H-indazol-5-yl)-6-(trifluoromethyl)picolinamide]
- Degradation of substrate protein IRAK4 (substrate protein remaining %) (IRAK4): A (A is defined as 0% ≤ substrate protein remaining % ≤ 80%)

SMILES: COc1cc2nn(C3CCN(Cc4cccc(N5CCC(=O)NC5=O)c4)CC3)cc2cc1NC(=O)c1cccc(C(F)(F)F)n1 [GT-04774, N-(2-(1-(3-(2,4-dioxotetrahydropyrimidin-1(2H)-yl)benzyl)piperidin-4-yl)-6-methoxy-2H-indazol-5-yl)-6-(trifluoromethyl)picolinamide]
- Degradation of substrate protein IRAK4 (substrate protein remaining %) (IRAK4): A (A is defined as 0% ≤ substrate protein remaining % ≤ 80%)

SMILES: COc1ccc2cn(C3CCN(Cc4ccc(C5CCC(=O)NC5=O)cc4)CC3)nc2c1NC(=O)c1cccc(C(F)(F)F)c1 (stereo not drawn) [GT-04813, N-(2-(1-(4-(2,6-dioxopiperidin-3-yl)benzyl)piperidin-4-yl)-6-methoxy-2H-indazol-7-yl)-3-(trifluoromethyl)benzamide]
- Degradation of substrate protein IRAK4 (substrate protein remaining %) (IRAK4): A (A is defined as 0% ≤ substrate protein remaining % ≤ 80%)

SMILES: COc1cc2nn(C3CCN(Cc4ccc(N5CCC(=O)NC5=O)nc4)CC3)cc2cc1NC(=O)c1cccc(C(F)(F)F)c1 [GT-04879, N-(2-(1-((6-(2,4-dioxotetrahydropyrimidin-1(2H)-yl)pyridin-3-yl)methyl)piperidin-4-yl)-6-methoxy-2H-indazol-5-yl)-3-(trifluoromethyl)benzamide]
- Degradation of substrate protein IRAK4 (substrate protein remaining %) (IRAK4): A (A is defined as 0% ≤ substrate protein remaining % ≤ 80%)

SMILES: COc1ccc2cn(C3CCN(Cc4ccc(N5CCC(=O)NC5=O)nc4)CC3)nc2c1NC(=O)c1cccc(C(F)(F)F)c1 [GT-04887, N-(2-(1-((6-(2,4-dioxotetrahydropyrimidin-1(2H)-yl)pyridin-3-yl)methyl)piperidin-4-yl)-6-methoxy-2H-indazol-7-yl)-3-(trifluoromethyl)benzamide]
- Degradation of substrate protein IRAK4 (substrate protein remaining %) (IRAK4): A (A is defined as 0% ≤ substrate protein remaining % ≤ 80%)

SMILES: Cc1nc2c(F)cc(-c3nc(Nc4ccc(N5CCC(N6CCN(Cc7cncc(N8CCC(=O)NC8=O)c7)CC6)CC5)cn4)ncc3F)cc2n1C(C)C [GT-07488, 1-(5-((4-(1-(6-((5-fluoro-4-(4-fluoro-1-isopropyl-2-methyl-1H-benzo[d]imidazol-6-yl)pyrimidin-2-yl)amino)pyridin-3-yl)piperidin-4-yl)piperazin-1-yl)methyl)pyridin-3-yl)dihydropyrimidine-2,4(1H,3H)-dione]
- IC50 (MM.1S): 50 to 100 nM
- IC50 (CCRF-CEM): 100 to 500 nM
- inhibition at 0.5 µM ([1]; at 0.5µM, read-out: Inhibition rate (%) at 0.5µM): 53 to 60%
- inhibition at 2 µM ([1]; at 2 µM, read-out: Inhibition rate (%) at 2 µM): 80 to 100%
- IC50 (H1975): 100 to 500 nM
- IC50 (MCF7): 50 to 100 nM
